# Laboratory results from PubChem BioAssay AID449745 (Broad Institute, 2010).
# Inconclusive results are not listed. Active and inactive are the calls of the source. No rule for the calls is given here.
# Target: Zinc finger protein mex-5 (Caenorhabditis elegans) (UniProt Q9XUB2)
# Experiment: retest of MEX-5 TCR-2 binding inhibitors, confirmation, biochemical, C. elegans, fluorescence polarization, dose retest (AID 449745);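 also: potency is for blocking Mex-5 binding to labeled TCR2 RNA like unlabeled competitor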
# Conditions: Mex-5 / TCR-2 RNA binding
# Zinc finger protein mex-5 (Caenorhabditis elegans), sequence (Q9XUB2 whole entry, looked up): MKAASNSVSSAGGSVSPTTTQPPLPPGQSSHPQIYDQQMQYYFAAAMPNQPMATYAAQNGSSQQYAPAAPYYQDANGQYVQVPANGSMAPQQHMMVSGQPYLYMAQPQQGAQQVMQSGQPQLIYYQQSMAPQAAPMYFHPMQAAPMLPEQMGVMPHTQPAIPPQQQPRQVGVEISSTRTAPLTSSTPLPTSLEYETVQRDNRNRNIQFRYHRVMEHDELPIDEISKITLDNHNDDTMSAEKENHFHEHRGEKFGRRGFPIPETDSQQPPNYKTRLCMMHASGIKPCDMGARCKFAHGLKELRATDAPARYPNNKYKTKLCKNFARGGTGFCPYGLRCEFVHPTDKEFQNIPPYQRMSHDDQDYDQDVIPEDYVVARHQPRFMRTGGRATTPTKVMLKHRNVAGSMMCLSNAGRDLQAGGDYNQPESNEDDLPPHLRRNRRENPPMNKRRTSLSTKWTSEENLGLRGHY
row,SMILES,AC50
1,COc1cc(N2CCCC2)c(OC)cc1/C=C(/C#N)c1cccc(Br)c1,10.3 µM
2,Oc1[nH]c2ccccc2c1N=NC(=S)N1CCOCC1,6.32 µM
3,Cc1nnc(N2C(=O)C(O)=C(C(=O)c3ccco3)C2c2ccc(C(C)C)cc2)s1 (centres undefined),37.2 µM
4,COc1ccccc1N1C(C)=CC(=C(C#N)c2nc3ccccc3s2)C=C1C,13.4 µM
5,O=C(O)c1cc(-c2ccc(/C=c3\sc4nc5ccc(Br)cc5n4c3=O)o2)ccc1Cl,5.15 µM
6,Cc1cc(=O)n2[nH]c(=O)c(N=Nc3ccccc3)c2[nH]1,< 0.3 µM
7,NS(=O)(=O)c1ccc(-c2ccc(C=C3C(=O)NC(=S)NC3=O)o2)cc1,8.11 µM
8,O=C(N/N=C/c1c(O)n(C2CC2)c(=S)[nH]c1=O)c1ccccc1O,27.5 µM
9,O=[N+]([O-])c1ccc(O)c(C=Nc2ccc3c(c2)OCCO3)c1,> 38 µM (inactive)
10,Cc1nc2c3ccccc3nc(NNC(=O)CCC(=O)NC(C)C)n2n1,< 0.3 µM
11,CC(C)C[C@H](NC(=O)C1CC(=O)N(c2ccc3c(c2)OCO3)C1)C(=O)NC1CCCC1 (some centres undefined),29.2 µM
12,COc1cccc(OCC(=O)NNC(=O)c2cnccn2)c1,0.315 µM
13,COc1ccccc1CN1CC(C(=O)NCCN(C)CCc2ccccc2)CCC1=O (centres undefined),> 38 µM (inactive)
14,O=C(CCCN1C(=O)/C(=C/c2ccccc2Cl)SC1=S)NNC(=O)c1ccc(Cl)cc1,> 38 µM (inactive)
15,O=C(Nc1ccc2nc(-c3ccco3)c(-c3ccco3)nc2c1)N1CCN(c2ccccn2)CC1,> 38 µM (inactive)
16,O=C(/C=C/c1ccc(O)c(O)c1)OC1C(O)CC(OC(=O)/C=C/c2ccc(O)c(O)c2)(C(=O)O)CC1O (centres undefined),15.9 µM
17,CCOC(=O)C1CCN(c2nc(N)c3c(N)nc(SCC(=O)O)cc3c2C#N)CC1,20.1 µM
18,O=C(N/N=C/C1C(=O)NC(=S)N(c2ccccc2)C1=O)c1cc(Br)c(O)c(Br)c1 (centres undefined),13 µM
19,N=c1c(C(=O)NCC2CCCO2)cc2c(=O)n3ccccc3nc2n1Cc1ccc(Cl)cc1 (centres undefined),> 38 µM (inactive)
20,Nc1cc2c3c(cccc3c1)C(=O)N(CCN1CCCC1)C2=O,16 µM
21,Cc1ccc(NC(=O)/C(C#N)=C(\N)C(Cl)(Cl)Cl)nc1,8.19 µM
22,CCC(C)[C@H](NC(=O)C1CC(=O)N(c2ccc3c(c2)OCO3)C1)C(=O)NC1CCCCC1 (some centres undefined),35.8 µM
23,CCc1cccc2cc3c(N)c(C(=O)Nc4ccc(S(=O)(=O)N5CCCC5)cc4)sc3nc12,8.06 µM
24,CC(C)N1CCc2c(sc(NC(=O)c3ccc(S(=O)(=O)N4CCCCC4C)cc3)c2C(N)=O)C1 (centres undefined),> 38 µM (inactive)
25,Cc1cc[n+](-c2[nH]c(=O)sc2/C=N/N=C(\[O-])c2ccncc2)cc1,29.4 µM
26,O=c1[nH]c(=O)n(Cc2ccccc2)c(O)c1/C=C1\C=Nc2ccccc21,29.8 µM

row,SMILES,AC50
1,O=C(O)COc1ccccc1C(Nc1cccnc1)c1cc(Cl)c2cccnc2c1O (centres undefined),10.5 µM
2,Cc1ccc(N2C(=O)NC(=O)/C(=C\c3ccc([N+](=O)[O-])o3)C2=O)cc1,6.08 µM
3,CC(C)(O)C(=O)NNC(=S)NCc1ccco1,4.16 µM
4,N#Cc1c(C#N)c(O)c2ccccc2c1O,11.3 µM
5,CCN1CCc2c(sc(N)c2C(N)=O)C1,37.4 µM
6,CSc1nc(N)c(N=Nc2ccc([As](=O)(O)O)cc2)c(=O)[nH]1,17.7 µM
7,O=C(O)c1ccc(Cl)c2c1C1C=CCC1C(c1ccccn1)N2 (centres undefined),29 µM
8,NC(=S)N/N=C/c1cccc(O)c1O,21.2 µM
9,CCOc1ccc(-c2c(C#N)c(N)nc3sc(C(=O)c4ccccc4)c(N)c23)cc1,35.5 µM
10,Cc1ccc(C(=O)N/C(=C\c2ccc(-c3ccc([N+](=O)[O-])cc3)o2)C(=O)NC2CCS(=O)(=O)C2)cc1 (centres undefined),> 38 µM (inactive)
11,O=C(O)c1c2c(nc3ccccc13)/C(=C/c1ccc(O)cc1)CC2,36.4 µM
12,O=c1c2ccccc2nc(/C=C/c2ccc([N+](=O)[O-])o2)n1-c1ccc(O)cc1,> 38 µM (inactive)
13,COc1ccc(OC)c(N2C(=O)NC(=O)/C(=C\c3ccc([N+](=O)[O-])s3)C2=O)c1,16.1 µM
14,C#CCN1C(=O)S/C(=C\c2ccc(-c3ccc(Cl)c(C(=O)O)c3)o2)C1=O,> 38 µM (inactive)
15,CC(=O)Nc1ccc(S(=O)(=O)NNC(=O)C(=O)NNc2ccccn2)cc1,0.621 µM
16,COc1ccc(/C=C2\SC(=O)NC2=S)cc1OC,20 µM
17,CC1=NN2C(=N)/C(=C\c3ccc(SCc4ccccc4)o3)C(=O)N=C2S1,38 µM
18,O=C1CCCC(O)=C1N=Nc1ccc(C(=O)O)cc1,32.9 µM
19,Cc1cc(C)c2c(c1)NC(C(=O)O)C1CC=CC21 (centres undefined),13.3 µM
20,CCOC(=O)/C(C#N)=C\c1ccc(N2CCN(C/C=C/c3ccccc3)CC2)cc1,7.9 µM
21,O=C(O)CCN1C(=O)/C(=C\c2ccc(-c3nc4ccccc4s3)o2)SC1=S,3.89 µM
22,C/C(=N/Nc1ccc(C(=O)O)cc1)c1ccc(O)c(O)c1O,11.1 µM
23,O=[As](O)(O)c1ccc(N=Nc2ccc(O)cc2)cc1,37.5 µM
24,CCOC(=O)C(C(=O)OCC)c1cc(Br)c2noc3c2c1C(=O)c1ccccc1-3,< 0.3 µM
25,CCc1ccc(N2C(=O)NC(=O)/C(=C/c3cccn3CCOc3ccc(C(C)CC)cc3)C2=O)cc1 (centres undefined),> 38 µM (inactive)
26,COc1ccc(N2C(=O)NC(=O)/C(=C\c3ccc([N+](=O)[O-])s3)C2=O)cc1,18.7 µM

row,SMILES,AC50
1,COc1ccc(N/C=C/C(=O)c2ccc3c(c2)OCO3)cc1OC,> 38 µM (inactive)
2,CCN1C/C(=C/c2ccc(OC)c(O)c2)C(=O)/C(=C/c2ccc(OC)c(O)c2)C1,> 38 µM (inactive)
3,N#CC1(C#N)C(c2ccccc2)OC23CCCCC2C1(C#N)C(=N)O3 (centres undefined),> 38 µM (inactive)
4,CCCCC1=CC2=C(c3ccco3)C(=O)C(C)(OC(=O)c3ccc(OC)cc3)C(=O)C2=CN1C(CO)CO (centres undefined),> 38 µM (inactive)
5,CCNC(=S)N/N=C/c1sc(N2CCCCC2)nc1-c1cccs1,10 µM
6,COc1ccc2c(c1)NP(=S)(Oc1ccccc1)N2 (centres undefined),12.8 µM
7,COc1ccc(CC(=O)NNC(=O)c2cnccn2)cc1,15.5 µM
8,Cc1ccc(N=Nc2c(O)n(CN3CCOCC3)c3ccccc23)cc1,11.4 µM
9,CC(=O)Nc1ccc(N2C(=O)c3cccc4c(O)ccc(c34)C2=O)cc1,3.81 µM
10,COc1ccc(CN2C(=O)NC(=O)/C(=C\c3ccco3)C2=O)cc1,38.7 µM
11,CC(=O)Nc1ccc2cc3ccc(NC(C)=O)cc3nc2c1,10.9 µM
12,CCc1nnc(NS(=O)(=O)c2ccc(N=Cc3c(O)n(-c4ccc(Cl)cc4)c(=O)[nH]c3=O)cc2)s1,> 38 µM (inactive)
13,O=C(N/N=C/c1c(O)n(Cc2ccccc2)c(=O)[nH]c1=O)c1ccccc1O,10.5 µM
14,COc1ccc(C(=O)N2C(=S)NC(=O)/C2=C\c2ccc(C)cc2)cc1,> 38 µM (inactive)
15,Cc1cccc(N=Nc2c(O)[nH]c3ccc(F)cc23)c1,4.46 µM
16,CCc1cc(-c2n[nH]c(CCC(=O)O)c2-c2nc3ccccc3n2C)c(O)cc1O,12.1 µM
17,COc1ccccc1-n1c(C)nc2cc(C(=O)NCc3ccc4c(c3)OCO4)ccc21,> 38 µM (inactive)
18,CC(=O)Nc1ccc(S(=O)(=O)NCC(=O)NNC(=O)c2csc(N3CCOCC3)n2)cc1,12.7 µM
19,Cc1cc[n+](-c2[nH]c(=O)sc2/C=N/NC([S-])=Nc2ccccc2)cc1,4.83 µM
20,CC1(C)CC(=O)C2=C(C1)OC(N)=C(C#N)C2c1ccccc1[N+](=O)[O-] (centres undefined),> 38 µM (inactive)
21,COC(=O)c1cc(O)c(O)c(O)c1,25.4 µM
22,N#C/C(=C\c1cccs1)C(=O)Nc1ccccn1,32.6 µM
23,O=C(O)/C=C/C(=O)NNc1ncnc2ccccc12,22.2 µM
24,O=C(NNC(=O)c1ccccc1O)c1ccc(S(=O)(=O)Nc2ccccc2)cc1,11.4 µM
25,Cc1ccc(N=C2NC(=O)/C(=C\c3ccc(C)s3)S2)cc1,> 38 µM (inactive)
26,O=C1c2cccc3cccc(c23)C(=O)C1(O)O,15.6 µM

row,SMILES,AC50
1,CCOc1ccc(/C=C/C(=O)c2c(O)c3ccccc3oc2=O)cc1,> 38 µM (inactive)
2,O=C(N/N=C/c1oc(O)c2ccccc12)c1ccccc1O,> 38 µM (inactive)
3,OC(CNC1CCCC1)COc1ccccc1Br (centres undefined),> 38 µM (inactive)
4,COC(=O)/C=C1/S/C(=N/NC(=O)c2ccc(Cl)cc2Cl)NC1=O,22.4 µM
5,CCOC(=O)/C(C#N)=C/c1ccc(-c2ccsc2C(=O)OC)o1,> 38 µM (inactive)
6,Cc1cc2c(n1-c1ccc(C(=O)O)cc1)CCCCC2,9.57 µM
7,O=C(O)c1ccccc1NS(=O)(=O)c1cccc(-n2sc3ccccc3c2=O)c1,7.89 µM
8,COc1cc2c(cc1N/C=C(\C#N)c1nc(-c3ccc(F)cc3)cs1)oc1ccccc12,> 38 µM (inactive)
9,COc1ccc2ccccc2c1CNCc1ccccn1,> 38 µM (inactive)
10,COc1cc(C=C2C(=O)c3ccccc3C2=O)cc(OC)c1OC,28.4 µM
11,NC(=O)c1c(NC(=O)C2COc3ccccc3O2)sc2c1CCN(Cc1ccccc1)C2 (centres undefined),> 38 µM (inactive)
12,CCCCn1c(O)c(N=Nc2ccccn2)c2ccccc21,24.2 µM
13,CC1(C)CC2(CC(c3ccccc3F)c3ccc(O)c(O)c3O2)NC(=S)N1 (centres undefined),0.638 µM
14,O=C(O)CCCCCN1C(=O)C(O)=C(C(=O)/C=C/c2ccccc2)C1c1ccccc1[N+](=O)[O-] (centres undefined),> 38 µM (inactive)
15,O=C(O)CCCC(=O)NNc1nc(-c2ccccc2)c2cc(Cl)ccc2n1,13.3 µM
16,Cc1ccc([C@@H]2C3COCC=C3C(C#N)=C(N)C2(C#N)C#N)o1 (some centres undefined),> 38 µM (inactive)
17,Nc1nnnn1/N=C/c1cc(Cl)ccc1O,37.5 µM
18,O=C1NC(=O)N(c2ccccc2)C(=O)/C1=C/c1ccc([N+](=O)[O-])s1,23.7 µM
19,Nc1nnc(CC(=O)N/N=C/c2cc([N+](=O)[O-])cc(Br)c2O)s1,2.69 µM
20,COCC(C)N1CCC(Oc2cccc(C(=O)NCCc3ccccc3)c2)CC1 (centres undefined),> 38 µM (inactive)
21,Cc1cc2ccccc2n1CCNC(=O)c1ccc(Br)o1,> 38 µM (inactive)
22,Cc1cc(C)cc(N2C(=O)NC(=O)/C(=C/c3cccn3-c3ccc(Cl)cc3)C2=O)c1,> 38 µM (inactive)
23,CN1/C(=C\C=C2C(=O)NC(=O)NC2=O)C(C)(C)c2ccccc21,> 38 µM (inactive)
24,CCOC(=O)c1c(/N=C/c2ccc(OC)cc2O)sc2c1CCN(C)C2,> 38 µM (inactive)
25,COc1ccc(/C=C/C(=O)c2c(O)n(CCC3=CCCCC3)c(=O)[nH]c2=O)cc1,> 38 µM (inactive)
26,Cn1ncc2c(NNC(=O)c3ccc(Cl)cc3Cl)ncnc21,12.7 µM
